One assay has as its system AMARE. The assay is described as follows: Greenhouse post-emergence treatment, herbicidal activity against AMARE. The class given is in vivo, Amaranthus retroflexus L. Here is the method:
(§1) The culture containers used were plastic pots containing loamy sand with approximately 2-3.0% of organic matter. The seeds of the test plants were sown separately for each species.
(§2) For the post-emergence treatment, the test plants were grown to a plant height of from 3 to 15 cm, depending on the plant habit, and only then treated with the active compounds which had been suspended or emulsified in water. To this end, the test plants were either sown directly, and grown in the same containers, or they were first grown separately as seedlings and transplanted into the test containers a few days prior to treatment.
(§3) Depending on the species, the plants were kept at 10-25° C. and 20-35° C., respectively. The test period extended over 1 to 4 weeks. During this time, the plants were tended and their response to the individual treatments was evaluated.
(§4) Evaluation was carried out using a scale from 0 to 100. 100 means no emergence of the plants, or complete destruction of at least the above-ground parts, and 0 means no damage or normal course of growth.

In another assay the test system is COMBE. The assay can be described thus: Greenhouse post-emergence treatment, herbicidal activity against COMBE. The class given is in vivo, Commelina benghalensis. On the procedure:
as §1, §2, §3, §4

In another assay the test system is IPOHE. The assay can be described thus: Greenhouse post-emergence treatment, herbicidal activity against IPOHE. The class given is in vivo, Ipomoea hederacea. On the procedure: as §1, §2, §3, §4
Another assay concerns LEFFA. The assay is described as follows: Greenhouse post-emergence treatment, herbicidal activity against LEFFA. The class given is in vivo, Leptochloa fusca subsp. Fascicularis. On the procedure:
as §1, §2, §3, §4

The test system of a further assay is PHACA. The assay can be described thus: Greenhouse post-emergence treatment, herbicidal activity against PHACA. The class given is in vivo, Phalaris canariensis L. On the procedure: as §1, §2, §3, §4
The next assay deals with SEBEX. The assay can be described thus: Greenhouse post-emergence treatment, herbicidal activity against SEBEX. The class given is in vivo, Sesbania exaltata. On the procedure:
as §1, §2, §3, §4

Another assay deals with SETVI. The assay can be described thus: Greenhouse post-emergence treatment, herbicidal activity against SETVI. The class given is in vivo, Setaria viridis L. On the procedure:
as §1, §2, §3, §4

A further assay concerns BRADE. The assay can be described thus: Greenhouse post-emergence treatment, herbicidal activity against BRADE. The class given is in vivo, Brachiaria deflexa. On the procedure:
as §1, §2, §3, §4

Like-named read-outs stand apart in the source and are kept apart here.

In the case of `C[C@@H](Oc1ccc(Oc2cnc3cc(Cl)ccc3n2)cc1)C(=O)O` [a1.14, quizalofop-P], the “herbicidal activity against AMARE, found” value in the assay on AMARE (a1.14 7.5 g/ha a.i.) came to 20%. Further, the “herbicidal activity against COMBE, found” value in the assay with COMBE (a1.14 10 g/ha a.i.) and in the assay on COMBE (a1.14 15 g/ha a.i.) was 0% throughout. Also, the “herbicidal activity against IPOHE, found” value turned out to be 0% with IPOHE (Example 3, a1.14 12 g/ha a.i.) and 5% in the assay on IPOHE (Example 5, a1.14 12 g/ha a.i.). Further, the “herbicidal activity against LEFFA, found” value in the assay on LEFFA (Example 10, a1.14 10 g/ha a.i.) is 40%; in the assay on LEFFA (Example 11, a1.14 10 g/ha a.i.), 40%; with LEFFA (Example 12, a1.14 10 g/ha a.i.), 40%; in the assay on LEFFA (Example 13, a1.14 10 g/ha a.i.), 40%; in the assay with LEFFA (a1.14 15 g/ha a.i.), 65%. The “herbicidal activity against PHACA, found” value in the assay on PHACA (a1.14 15 g/ha a.i.) is recorded as 65%. For the same compound, in the assay on SEBEX (a1.14 15 g/ha a.i.), the “herbicidal activity against SEBEX, found” value amounted to 0%. Moreover, the entries for the “herbicidal activity against SETVI, found” value in the assay with SETVI (a1.14 7.5 g/ha a.i.) and in the assay on SETVI (a1.14 15 g/ha a.i.) were 75% and 85%, respectively.
As for `CCCC(=NOCC)C1=C(O)CC(C2CCCSC2)CC1=O` (stereo not shown) [a1.19, cycloxydim], the “herbicidal activity against AMARE, found” value in the assay on AMARE (Example 2, a1.19 10 g/ha a.i.) turned out to be 0%; in the assay on AMARE (Example 6, a1.19 10 g/ha a.i.), 0%. Moreover, the “herbicidal activity against BRADE, found” value in the assay with BRADE (a1.19 10 g/ha a.i.) stood at 65%. Also, the “herbicidal activity against COMBE, found” value in the assay on COMBE (a1.19 10 g/ha a.i.) amounted to 0%. The “herbicidal activity against IPOHE, found” value with IPOHE (Example 1, a1.19 10 g/ha a.i.) amounted to 10%; in the assay on IPOHE (Example 6, a1.19 10 g/ha a.i.), 10%; in the assay with IPOHE (a1.19 5 g/ha a.i.) it was 0%. Besides, the pest or weed control at 5 g/ha with LEFFA (Diplachne fusca, a1.19 5 g/ha a.i., read-out: herbicidal activity against LEFFA, found) is 50%.
For the compound `COc1cc(OC)nc(NC(=O)NS(=O)(=O)c2c(-c3nnn(C)n3)cnn2C)n1` [b2.1, azimsulfuron], the “herbicidal activity against COMBE, found” value in the assay on COMBE (b2.1 5 g/ha a.i.) is listed as 0%. Moreover, the “herbicidal activity against IPOHE, found” value with IPOHE (b2.1 10 g/ha a.i.) is 90%.
With `COc1cc(OC)nc(NC(=O)NS(=O)(=O)Cc2ccccc2C(=O)O)n1` [b2.2, bensulfuron], the “herbicidal activity against AMARE, found” value with AMARE (b2.2 31 g/ha a.i.) was 80%. Moreover, in the assay on BRADE (b2.2 31 g/ha a.i.), the “herbicidal activity against BRADE, found” value came to 0%.
Regarding `COc1cnc(OC)n2nc(NS(=O)(=O)c3c(OCC(F)F)cccc3C(F)(F)F)nc12` [b2.12, penoxsulam], the “herbicidal activity against IPOHE, found” value in the assay on IPOHE (Example 3, b2.12 8 g/ha a.i.) was 80%; in the assay on IPOHE (Example 4, b2.12 8 g/ha a.i.) it was 80%. The pest or weed control at 8 g/ha in the assay on LEFFA (Diplachne fusca, b2.12 8 g/ha a.i., read-out: herbicidal activity against LEFFA, found) came to 0%.
In the case of `COc1cc(OC)nc(Oc2cccc(Oc3nc(OC)cc(OC)n3)c2C(=O)O)n1` [b2.13, bispyribac], the “herbicidal activity against AMARE, found” value in the assay on AMARE (b2.13 5 g/ha a.i.) was determined as 90%. For the same compound, the “herbicidal activity against IPOHE, found” value in the assay with IPOHE (Example 5, b2.13 5 g/ha a.i.) amounted to 75%; in the assay with IPOHE (Example 6, b2.13 5 g/ha a.i.) it was 75%. In the assay on LEFFA (Diplachne fusca, Example 10, b2.13 5 g/ha a.i., read-out: herbicidal activity against LEFFA, found), the pest or weed control at 5 g/ha is 65%. The “herbicidal activity against LEFFA, found” value in the assay on LEFFA (Example 11, b2.13 5 g/ha a.i.) is 65%.
Regarding `CC(C)N1C(=O)c2ccccc2NS1(=O)=O` [b3.1, bentazone], the “herbicidal activity against COMBE, found” value in the assay with COMBE (b3.1 250 g/ha a.i.) stood at 95%. Further, the pest or weed control at 250 g/ha in the assay on LEFFA (Diplachne fusca, b3.1 250 g/ha a.i., read-out: herbicidal activity against LEFFA, found) worked out at 10%.
Regarding `CC(C)N(C)S(=O)(=O)NC(=O)c1cc(-n2c(=O)cc(C(F)(F)F)n(C)c2=O)c(F)cc1Cl` [b4.3, saflufenacil], the pest or weed control at 2.5 g/ha in the assay with LEFFA (Diplachne fusca, Example 11, b4.3 2.5 g/ha a.i., read-out: herbicidal activity against LEFFA, found) came out at 65%. Besides, in the assay with LEFFA (Example 12, b4.3 2.5 g/ha a.i.), the “herbicidal activity against LEFFA, found” value is listed as 65%.
Turning to `CC1(C)CON(Cc2ccccc2Cl)C1=O` [b5.1, clomazone], the “herbicidal activity against COMBE, found” value in the assay on COMBE (b5.1 75 g/ha a.i.) is given as 70%. In the assay with SETVI (b5.1 75 g/ha a.i.), the “herbicidal activity against SETVI, found” value is 15%.
Take `COc1c(Cl)ccc(Cl)c1C(=O)O` [b7.2, dicamba]: the pest or weed control at 250 g/ha in the assay with LEFFA (Diplachne fusca, b7.2 250 g/ha a.i., read-out: herbicidal activity against LEFFA, found) was 25%.
Consider `O=C(O)c1c(Cl)ccc2cc(Cl)cnc12` [b7.5, quinclorac], for which, in the assay on AMARE (b7.5 180 g/ha a.i.), the “herbicidal activity against AMARE, found” value is 50%. In addition, in the assay with COMBE (b7.5 7.5 g/ha a.i.), the “herbicidal activity against COMBE, found” value is listed as 0%. In addition, the pest or weed control at 75 g/ha in the assay with LEFFA (Diplachne fusca, Example 12, b7.5 75 g/ha a.i., read-out: herbicidal activity against LEFFA, found) amounted to 65%. Also, the “herbicidal activity against LEFFA, found” value with LEFFA (Example 13, b7.5 75 g/ha a.i.) was 65%. Moreover, in the assay with SETVI (b7.5 90 g/ha a.i.), the “herbicidal activity against SETVI, found” value is recorded as 65%.
Regarding `O=C(O)COc1nc(Cl)c(Cl)cc1Cl` [b7.6, triclopyr], the pest or weed control at 50 g/ha in the assay on LEFFA (Diplachne fusca, b7.6 50 g/ha a.i., read-out: herbicidal activity against LEFFA, found) was 20%. The “herbicidal activity against PHACA, found” value in the assay with PHACA (b7.6 50 g/ha a.i.) amounted to 0%. For the same compound, in the assay on SEBEX (b7.6 50 g/ha a.i.), the “herbicidal activity against SEBEX, found” value worked out at 50%.

The values above are taken from patent US20160270397A1, “Herbicidal Composition Comprising ACC Inhibitors” (BASF SE, priority 2013, published 2016).
